Assay results taken from patent US20130317053A1, “EXTERNALLY-USED DRUG FOR TREATING SKIN DISORDER AND METHOD FOR PRODUCING SAME” (OSAKA UNIVERSITY, priority 2011, published 2013).

Experiments:
VEGF [1] = test: inhibition of VEGF expression in HaCat; format: cell-based; conditions: 20 nM, 72 hours
Experimental: (§1) A cell of angiofibroma, a human fibroblast, and HaCat, each of which was isolated from a patient with tuberous sclerosis complex, were used. Isolation of the cell of angiofibroma was carried out by removing angiofibroma from a patient who wished the angiofibroma to be removed and then using the primary culturing method. […] HaCat was purchased from German Cancer Research Center (dkfz). The cells obtained from the respective patients were used with the patients' consent.
(§2) The cell of angiofibroma, the human fibroblast, and HaCat were each cultured with use of a DME culture medium at a temperature of 37° C. in a 5% CO2 environment. During the culture of these cells, sirolimus was added to each of the culture mediums so as to have a final concentration of 0 nM (that is, no sirolimus is added to a culture medium (a control)), 1 nM, 10 nM, or 20 nM. The cells were each incubated again at a temperature of 37° C. in a 5% CO2 environment, and a culture supernatant was collected […] after sirolimus was added. A concentration of VEGF in the collected culture supernatant was measured with use of a kit (Quantikine® Human VEGF manufactured by R&D SYSTEMS®) for detecting VEGF.

TYRP1 = test: expression level of mRNA of TYRP1 in melanocytes (real-time RT-PCR); format: cell-based
Experimental: (§3) 1.4×10^5 melanocytes were inoculated in wells of 6-well culture plate, and a medium 254 (produced by KURABO […] LTD.; M254500) was added to the wells. Subsequently, the plate was incubated for 24 hours at a temperature of 37° C. in a 5% CO2 environment.
(§4) Sirolimus was added to the respective wells so as to have a final concentration of 0 nM (that is, no sirolimus is added to a culture medium), 1 nmol/L, 10 nmol/L, and 20 nmol/L, respectively. The plates were incubated for 24 hours or 48 hours at a temperature of 37° C. in a 5% CO2 environment.
(§5) From the wells thus incubated, the medium 254 was removed. Then, an operation of adding PBS to the wells and removing the PBS from the wells was carried out three times to wash the melanocytes with the PBS.
(§6) To the wells from which the PBS had been removed, 175 μL of an RNA lysis buffer was added. The RNA lysis buffer is attached to a kit of an SV Total RNA Solution System (manufactured by Promega Corporation; Z3105).
(§7) Melanocytes were peeled off the plate with use of a cell scraper.
(§8) The RNA lysis buffer containing melanocytes was collected into a 1.5 mL Eppendorf tube. Then, RNAs were extracted from the collected buffer.
(§9) Real-time RT-PCR was carried out with use of the RNAs to detect expression of mRNAs of MITF, mRNAs of TYR, mRNAs of TYRP1, and mRNAs of GAPDH. An expression level of the mRNAs of MITF, an expression level of the mRNAs of TYR, and an expression level of the mRNAs of TYRP1 were each calculated as a relative expression level with respect to an expression level of the mRNA of GAPD.
(§10) This experiment was carried out three times to calculate an average value and a standard deviation of relative expression levels of mRNAs of each of MITF, TYR, and TYRP1. Whether or not there was a statistically significant difference between test results obtained with use of the respective external medicines was checked by calculating a p value with use of a Student's t-test having no correspondence. In a case where the p value was less than 0.05, a statistically significant difference was recognized.
(§11) To detect expression of the mRNAs of MITF, TagMan® Gene Expression Assays (produced by Applied biosystems, Inc.; Hs00165156_m1) was used. To detect expression of the mRNAs of TYR, TagMan® Gene Expression Assays (produced by Applied biosystems, Inc.; Hs00165976_m1). To detect expression of the mRNAs of TYRP1, TagMan® Gene Expression Assays (produced by Applied biosystems, Inc.; Hs00167051_m1) was used. To detect expression of the mRNAs of GAPDH, TagMan® Gene Expression Assays (produced by Applied biosystems, Inc.; Hs99999905_m1) was used.

TYR = test: expression level of mRNA of TYR in melanocytes (real-time RT-PCR); format: cell-based
Experimental: as §3, §4, §5, §6, §7, §8, §9, §10, §11

VEGF [2] = test: inhibition of VEGF expression in human fibroblast; format: cell-based; conditions: 20 nM, 72 hours
Experimental: as §1, §2

VEGF [3] = test: inhibition of VEGF expression in cell of angiofibroma; format: cell-based, human
Experimental: as §1, §2

MITF = test: expression level of mRNA of MITF in melanocytes (real-time RT-PCR); format: cell-based
Experimental: as §3, §4, §5, §6, §7, §8, §9, §10, §11

**Q.** For `CO[C@H]1C[C@@H]2CC[C@@H](C)[C@@](O)(O2)C(=O)C(=O)N2CCCC[C@H]2C(=O)O[C@H]([C@H](C)C[C@@H]2CC[C@@H](O)[C@H](OC)C2)CC(=O)[C@H](C)/C=C(\C)[C@@H](O)[C@@H](OC)C(=O)[C@H](C)C[C@H](C)/C=C/C=C/C=C/1C` [sirolimus], which “concentration of VEGF decreased to (% of untreated)” value (VEGF [1]) is on record?
**A.** about 40%

**Q.** And the rate of decrease in concentration of VEGF (ratio treated/untreated) (VEGF [1])?
**A.** 0.405

**Q.** And the “concentration of VEGF in culture supernatant” value (VEGF [1]; control 1849.9)?
**A.** 749.9 pg/mL

**Q.** And the “relative expression levels of TYRP” value (TYRP1; 1 nM, 24 hours, untreated 24 h 1.031±0.027)?
**A.** 1.333±0.055

**Q.** What about the “relative expression levels of TYRP” value (TYRP1; 1 nM, 48 hours, untreated 48 h 1.338±0.029) of the same compound?
**A.** 1.450±0.028

**Q.** What about the “relative expression levels of TYRP” value (TYRP1; 20 nM, 24 hours, untreated 24 h 1.031±0.027) of the same compound?
**A.** 1.652±0.031

**Q.** And the “relative expression levels of TYRP” value (TYRP1; 20 nM, 48 hours, untreated 48 h 1.338±0.029)?
**A.** 1.514±0.124

**Q.** What about the “relative expression levels of TYR” value (TYR; 1 nM, 24 hours, untreated 24 h 0.640±0.036) of the same compound?
**A.** 0.820±0.047

**Q.** What about the “relative expression levels of TYR” value (TYR; 1 nM, 48 hours, untreated 48 h 0.771±0.009) of the same compound?
**A.** 0.760±0.044

**Q.** And the “relative expression levels of TYR” value (TYR; 20 nM, 24 hours, untreated 24 h 0.640±0.036)?
**A.** 0.921±0.029

**Q.** What about the “relative expression levels of TYR” value (TYR; 20 nM, 48 hours, untreated 48 h 0.771±0.009) of the same compound?
**A.** 0.858±0.022

**Q.** What about the “concentration of VEGF decreased to (% of untreated)” value (VEGF [2]) of the same compound?
**A.** about 30%

**Q.** And the rate of decrease in concentration of VEGF (ratio treated/untreated) (VEGF [2])?
**A.** 0.336

**Q.** And the “concentration of VEGF in culture supernatant” value (VEGF [2]; control 1492.7)?
**A.** 501.3 pg/mL

**Q.** What about the “concentration of VEGF in culture supernatant” value (VEGF [3]; 1 nM, 48 hours, untreated 260.2857) of the same compound?
**A.** 113.1428 pg/mL

**Q.** And the “concentration of VEGF in culture supernatant” value (VEGF [3]; 10 nM, 48 hours, untreated 260.2857)?
**A.** 92.4285 pg/mL

**Q.** And the “concentration of VEGF decreased to (% of untreated)” value (VEGF [3]; 20 nM, 72 hours)?
**A.** about 20%

**Q.** And the rate of decrease in concentration of VEGF (ratio treated/untreated) (VEGF [3]; 20 nM, 72 hours)?
**A.** 0.196

**Q.** And the “concentration of VEGF in culture supernatant” value (VEGF [3]; 20 nM, 72 hours, control 858.4)?
**A.** 168 pg/mL

**Q.** And the “relative expression levels of MITF” value (MITF; 1 nM, 24 hours, relative to GAPDH, untreated 24 h 100.00±3.37)?
**A.** 152.48±3.47

**Q.** And the “relative expression levels of MITF” value (MITF; 1 nM, 48 hours, untreated 48 h 107.95±1.38)?
**A.** 129.41±3.43

**Q.** What about the “relative expression levels of MITF” value (MITF; 20 nM, 24 hours, untreated 24 h 100.00±3.37) of the same compound?
**A.** 152.18±14.75

**Q.** What about the “relative expression levels of MITF” value (MITF; 20 nM, 48 hours, untreated 48 h 107.95±1.38) of the same compound?
**A.** 141.56±3.52
